Experimental data reported in patent US20180036270A1, “A METHOD OF PROTECTING AGAINST CARBONYL STRESS INDUCED ISCHEMIA-REPERFUSION INJURY IN THE DIABETIC BRAIN VIA ADMINISTRATION OF N-ACETYLCYSTEINE” (Board of Supervisors of Louisiana State University and …, priority 2015, published 2018).

Tests used:
[1] = system: human brain microvascular endothelial cell; assay: Endothelial barrier permeability by transendothelial electrical resistance; format: cell-based; settings: MG alone
Experimental: Moreover, treatment with 100 μM MG in rat thoracic aortic rings for 24 h decreases acetylcholine-induced vascular relaxation via a reduction in p-eNOS (Ser1177) and p-AMPKα (Thr172). MG can reduce endothelial angiogenesis through RAGE-mediated, ONOO(^−)-dependent and autophagy-induced VEGFR2 degradation. […] This is exacerbated by GSH synthesis inhibition and prevented by NAC. The enhanced MG concentration in diabetic patients can also directly contribute to the platelet dysfunction associated with diabetes. Platelet dysfunction is characterized by hyperaggregability and reduced thrombus stability via potentiating thrombin-induced platelet aggregation and dense granule release, but inhibiting platelet spreading on fibronectin and collagen. Given that endothelial dysfunction and enhanced platelet activation could promote stroke, these studies indicate that MG can contribute to ischemic brain injury.

[2] = system: rat thoracic aortic rings; settings: 100 μM MG for 24 h; cited from earlier work
[3] = system: brain GSH and cysteine contents; assay: Brain GSH and cysteine by HPLC; format: in vivo, mouse; settings: vehicle mice given BSO, inhibition of GSH synthesis
From the text: Four-week-old male C57BL/6J mice, weighing 18-20 g, were purchased from Jackson Laboratory. These mice were maintained at the Animal Facility of the Louisiana State University Health Sciences Center—Shreveport. Animal care and use in the experiments follow the guidelines in the Guide for the Care and Use of Laboratory Animals, published by the US National Institutes of Health. Following adaptation for 1 week, the mice were divided randomly into 4 groups: non-treated sham operation group (NT-sham group, n=6), non-treated I/R group (NT-I/R group, n=5), vehicle I/R group (Veh-I/R group, n=24), and streptozotocin I/R group (STZ-I/R group, n=19). […] On day 7, mice whose plasma glucose was more than 300 mg/dl were deemed to be diabetic. From diabetes onset at week 1, a group of diabetic mice were given 0.2 mM NAC in the drinking water for 3 weeks (n=3; a total of 4 weeks diabetes, 3 weeks NAC) or 1 week (n=9; a total of 2 weeks diabetes, 1 week NAC). Veh-I/R mice were injected with citrate buffer for consecutive 5 days, and a group of Veh-treated mice were given 0.2 mM NAC for 2 weeks in the drinking water before the ischemia operation (Veh+NAC group, n=8). Another Veh-treated mice were injected (intraperitoneally, 12 hr interval) with 0.5M BSO 24 h before the ischemia operation and during the 24 h reperfusion period (Veh+BSO group, n=10). All mice were 9 weeks old at sacrifice.
Tissue contents of GSH, cysteine and γGC were determined by high-performance liquid chromatography (HPLC). […] Separation of GSH, cysteine and γGC derivatives whose peaks were detected at 365 nm wavelength was performed on a 250×4.6-mm Alltech Lichrosorb NH2 10 μm anion-exchange column. GSH, cysteine and γGC contents were quantified by comparison to standards derivatized in the same manner. Protein pellets were dissolved in 1 M NaOH for protein quantitation and GSH, cysteine and γGC concentrations were expressed as nanomoles per mg protein.

[4] = biological target: T1, glutamate cysteine ligase (GCL) (Homo sapiens, UniProt P48506); settings: after brain ischemia/reperfusion, in the presence of BSO; cited from earlier work
T1 sequence (P48506 1-637): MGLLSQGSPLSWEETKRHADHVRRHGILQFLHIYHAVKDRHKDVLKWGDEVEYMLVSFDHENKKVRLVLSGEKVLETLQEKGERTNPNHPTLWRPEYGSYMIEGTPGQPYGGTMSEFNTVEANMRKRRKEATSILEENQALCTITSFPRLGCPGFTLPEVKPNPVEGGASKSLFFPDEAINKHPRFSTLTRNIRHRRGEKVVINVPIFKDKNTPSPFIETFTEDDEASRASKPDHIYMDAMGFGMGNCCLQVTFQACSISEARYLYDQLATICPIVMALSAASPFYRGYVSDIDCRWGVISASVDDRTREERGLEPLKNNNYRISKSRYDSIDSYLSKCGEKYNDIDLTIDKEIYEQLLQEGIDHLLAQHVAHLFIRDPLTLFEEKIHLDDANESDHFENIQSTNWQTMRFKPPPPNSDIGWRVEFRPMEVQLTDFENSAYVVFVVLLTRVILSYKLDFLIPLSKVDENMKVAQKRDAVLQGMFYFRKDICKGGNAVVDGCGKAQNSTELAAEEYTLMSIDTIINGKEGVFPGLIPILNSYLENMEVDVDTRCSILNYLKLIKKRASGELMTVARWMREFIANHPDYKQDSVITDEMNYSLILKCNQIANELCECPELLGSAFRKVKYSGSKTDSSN
T1 sequence (P48507 1-274 partner): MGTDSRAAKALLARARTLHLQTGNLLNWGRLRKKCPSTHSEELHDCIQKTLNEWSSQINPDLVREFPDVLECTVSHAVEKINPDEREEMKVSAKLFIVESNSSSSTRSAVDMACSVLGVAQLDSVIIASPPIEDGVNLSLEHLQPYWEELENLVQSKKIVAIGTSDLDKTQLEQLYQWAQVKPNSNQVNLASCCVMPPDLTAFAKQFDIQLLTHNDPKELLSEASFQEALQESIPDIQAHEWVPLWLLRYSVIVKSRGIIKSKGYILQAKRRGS

Akita diabetic mouse = assay: Akita model: platelet-neutrophil aggregates and thrombosis onset and cessation; format: in vivo; settings: Akita diabetic mice, insulin treatment
From the text: FIGS. 28A-28C are three bar graphs showing percent platelet-neutrophil aggregate formation (FIG. 28A), time to onset of thrombosis (FIG. 28B), and time to cessation of thrombosis (FIG. 28C) for Akita non-diabetic mouse, Akita diabetic mouse, Akita diabetic mouse plus insulin, and Akita diabetic mouse plus insulin and NAC; and
Akita model: like STZ model, shown in FIGS. 28A-28C percent platelet-neutrophil aggregate formation is increased, and time to onset and cessation in thrombosis are accelerated in arterioles and venules. Again this reiterates that the effects of diabetes may be “global” rather than confined to one type/cause of diabetes. […] The data evidences that glucose control, which is the current treatment, is not completely effective and that co-treatment with NAC is very effective. […] It appears that insulin and NAC are additive/synergistic.

CC(=O)C=O [MG, Methylglyoxal]
endothelial barrier permeability (loss of transendothelial electrical resistance) [1]: increase human brain microvascular endothelial cell barrier permeability | acetylcholine-induced vascular relaxation [2]: decreases

CCCCS(=N)(=O)CCC(N)C(=O)O [BSO, L-buthionine sulfoximine]
brain cysteine levels [3]: higher free cysteine levels | brain infarction and edema [4]: exacerbated further

insulin
platelet-neutrophil aggregate formation (Akita diabetic mouse): reversal | thrombosis cessation time (time to complete occlusion of the vessel) (Akita diabetic mouse): did not correct | thrombosis onset time in arterioles (Akita diabetic mouse): reversal | thrombosis onset time in venules (Akita diabetic mouse): did not correct
